# Experiments:
# [1] = Solubility of compounds and formulations; assay type: physicochemical
# Procedure: The obtained solution can be stored for at least three months at low temperatures, without noticeable change in the properties of compound (I-VI). Moreover, the formulation retains its cytotoxic effects during prolonged storage. Before use, the solution is evaporated in vacuo to yield a waxy solid which is dissolved in saline or other commonly used vehicle for intravenous infusion to a patient. […] An ethanol solution is prepared of one of N-(all-trans-Retinoyl)-L-cysteic acid (I), N-(13-cis-Retinoyl)-L-cysteic acid (11), N-(all-trans-Retinoyl)-L-homocysteic acid (III), N-(13-cis-Retinoyl)-L-homocysteic acid (IV), N-(all-trans-Retinoyl)-L-cysteinesulfinic acid (V), or N-(13-cis-Retinoyl)-L-cysteinesulfinic acid (VI). The obtained solution is evaporated in vacuo to give waxy solid, whereupon Taxol® is added, dissolving the waxy solid. […]
# [2] = system: human breast adenocarcinoma MDA-MB-231 cell line; test: Cytotoxicity: cell growth inhibition in cultures, viable cells counted by trypan blue exclusion; assay type: cell-based; conditions: for inhibition at 0.04 µM / inhibition at 1 µM / inhibition at 0.1 µM / inhibition at 0.01 µM / inhibition at 0.001 µM / inhibition at 0.0001 µM / inhibition at 10 pM: Homo sapiens
# Procedure: The cell line was propagated by cultivation in Nunclon 25 cm^2 flasks (Nunc A/S, Denmark) in Minimum Essential Medium Eagle (MEM), containing antibiotics and supplemented with 10% (v/v) fetal bovine serum (FBS) (Sigma, St. Louis, Mo., USA). The cultures were maintained in growth medium at 37° C. in a humidified atmosphere, 95% air and 5% CO2.
# A suspension of tumour cells (60×10^3 cells/mL) was prepared in MEM with 5% FBS and antibiotics. Cell suspension (200 μL) was seeded in wells of Nunclon 96-microwell plates (Nunc A/S, Denmark) at a density of 12×10^3 cell/well. The solutions of the drugs to be tested were added to the cultures on day 0 or day 1 in volumes of 2 μL. In all cases the cells were incubated for 3 days.
# At the end of the incubation period, adherent cells were detached by trypsinization and the number of viable cells was counted using trypan blue dye exclusion test and a hemocytometer.
# All experiments were performed at least twice and the cells counts were done in triplicate for each drug concentration. Each control and test series consisted of 6-8 cultures. The results are expressed as mean cell number ±SD and the differences between control and test series were evaluated by means of Student's t-test. The cytotoxicity of each tested drug was evaluated by the extent of cell growth inhibition. The Cell growth inhibition was evaluated as follows:
# Cell growth inhibition, %=- - - ×100
# [3] = initial saline solution 0.005 mg/mL, final 40 nM in cultures, added day 1, three days of cultivation
# [4] = initial saline solution 0.05 mg/mL, final 40 nM, day 1, three days
# [5] = initial saline solution 0.5 mg/mL, final 40 nM, day 1, three days
# [6] = initial saline solution 1.0 mg/mL, final 40 nM, day 1, three days
# [7] = initial saline solution 5.0 mg/mL, final 40 nM, day 1, three days
smiles,measurement,setting,value
"CC1=C(/C=C/C(C)=C/C=C/C(C)=C/C(=O)N[C@@H](CS(=O)(=O)O)C(=O)O)C(C)(C)CCC1 [Compound I, N-(all-trans-Retinoyl)-L-cysteic acid]",solubility in the commercially available Taxol® preparation,[1],excellent solubility
same,solubility in solvents,[1]; sodium salts,soluble only in mixtures containing water
same,inhibition at 0.04 µM,"[2]; MDA-MB-231, compound alone 4 × 10^−8 mol/L (40 nM), added day 0, three days",39.6%
same,inhibition at 0.04 µM,"[2]; MDA-MB-231, dry substance, stock 1 mg/ml in saline, final 4 × 10^−8 mol/L, day 1, three days",38.1%
same,inhibition at 1 µM,"[2]; MDA-MB-231, dry substance, stock 1 mg/ml in saline, final 10^−6 mol/L, day 1, three days",42.1%
same,inhibition at 0.1 µM,"[2]; MDA-MB-231, dry substance, stock 1 mg/ml in saline, final 10^−7 mol/L, day 1, three days",39.1%
same,inhibition at 0.01 µM,"[2]; MDA-MB-231, dry substance, stock 1 mg/ml in saline, final 10^−8 mol/L, day 1, three days",29.9%
same,inhibition at 0.001 µM,"[2]; MDA-MB-231, dry substance, stock 1 mg/ml in saline, final 10^−9 mol/L, day 1, three days",19.8%
same,inhibition at 0.0001 µM,"[2]; MDA-MB-231, dry substance, stock 1 mg/ml in saline, final 10^−10 mol/L, day 1, three days",18.6%
same,inhibition at 10 pM,"[2]; MDA-MB-231, dry substance, stock 1 mg/ml in saline, final concentration 10^−11 mol/L, day 1, three days",27.3%
same,inhibition at 0.04 µM,"[2]; MDA-MB-231, sodium salt in saline, final 4 × 10^−8 mol/L, day 1, three days",46.8%
same,inhibition at 1 µM,"[2]; MDA-MB-231, sodium salt in saline, final 10^−6 mol/L (top of range 10^−11 M to 10^−6 M), day 1, three days",49.7%
same,inhibition at 0.1 µM,"[2]; MDA-MB-231, sodium salt in saline, final 10^−7 mol/L, day 1, three days",48%
same,inhibition at 0.01 µM,"[2]; MDA-MB-231, sodium salt in saline, final 10^−8 mol/L, day 1, three days",46.2%
same,inhibition at 0.001 µM,"[2]; MDA-MB-231, sodium salt in saline, final 10^−9 mol/L, day 1, three days",39.7%
same,inhibition at 0.0001 µM,"[2]; MDA-MB-231, sodium salt in saline, final 10^−10 mol/L, day 1, three days",36.5%
same,inhibition at 10 pM,"[2]; MDA-MB-231, sodium salt of the compound dissolved in saline (1 mg/ml), final concentration 10^−11 mol/L, day 1, three days",28.6%
same,cell growth inhibition,"[2]; compound alone 4 × 10^−8 mol/L (40 nM), added day 0, three days, 0.04 µM",~40%
same,number of living cells,"[2]; compound alone 4 × 10^−8 mol/L, added day 0, three days",16.3 ± 2.50 × 10^3
same,Cell growth inhibition % Formulation,[2]; compound/paclitaxel formulations in saline,close to 75%
same,Cell growth inhibition % OF W/SAB,"[2]; dried compound/paclitaxel mixed-micellar system (OF), freeze-dried as water solution, reconstituted with 0.05 M sodium acetate buffer",close to 71%
same,Cell growth inhibition % OF SAB/W,"[2]; dried compound/paclitaxel mixed-micellar system (OF), freeze-dried in 0.05 M sodium acetate buffer, reconstituted with water",close to 72%
same,number of living cells,"[2]; dry substance, stock 1 mg/ml in saline, final 4 × 10^−8 mol/L, day 1, three days",30.9 ± 1.62 × 10^3
same,number of living cells,"[2]; dry substance, stock 1 mg/ml in saline, final 10^−6 mol/L, day 1, three days",28.9 ± 2.68 × 10^3
same,number of living cells,"[2]; dry substance, stock 1 mg/ml in saline, final 10^−7 mol/L, day 1, three days",30.4 ± 1.83 × 10^3
same,number of living cells,"[2]; dry substance, stock 1 mg/ml in saline, final 10^−8 mol/L, day 1, three days",35.0 ± 4.38 × 10^3
same,number of living cells,"[2]; dry substance, stock 1 mg/ml in saline, final 10^−9 mol/L, day 1, three days",40.0 ± 2.31 × 10^3
same,number of living cells,"[2]; dry substance, stock 1 mg/ml in saline, final 10^−10 mol/L, day 1, three days",40.6 ± 1.69 × 10^3
same,number of living cells,"[2]; dry substance, stock 1 mg/ml in saline, final concentration 10^−11 mol/L, day 1, three days",36.3 ± 3.82 × 10^3
same,cell growth inhibition,[2]; [3],33.3%
same,number of living cells,[2]; [3],33.3 ± 2.55 × 10^3
same,cell growth inhibition,[2]; [4],32.1%
same,number of living cells,[2]; [4],33.9 ± 2.78 × 10^3
same,cell growth inhibition,[2]; [5],31.5%
same,number of living cells,[2]; [5],34.2 ± 5.09 × 10^3
same,cell growth inhibition,[2]; [6],38.3%
same,number of living cells,[2]; [6],30.8 ± 3.53 × 10^3
same,cell growth inhibition,[2]; [7],27.7%
same,number of living cells,[2]; [7],36.1 ± 4.10 × 10^3
same,number of living cells,"[2]; sodium salt in saline, final 4 × 10^−8 mol/L, day 1, three days",31.2 ± 1.72 × 10^3
same,cell growth inhibition,"[2]; sodium salt in saline, final 10^−6 mol/L (top of range 10^−11 M to 10^−6 M), day 1, three days",~50%
same,number of living cells,"[2]; sodium salt in saline, final 10^−6 mol/L, day 1, three days",29.5 ± 1.36 × 10^3
same,number of living cells,"[2]; sodium salt in saline, final 10^−7 mol/L, day 1, three days",30.5 ± 0.89 × 10^3
same,number of living cells,"[2]; sodium salt in saline, final 10^−8 mol/L, day 1, three days",31.6 ± 1.69 × 10^3
same,number of living cells,"[2]; sodium salt in saline, final 10^−9 mol/L, day 1, three days",35.4 ± 2.23 × 10^3
same,number of living cells,"[2]; sodium salt in saline, final 10^−10 mol/L, day 1, three days",37.3 ± 2.84 × 10^3
same,number of living cells,"[2]; sodium salt of the compound dissolved in saline (1 mg/ml), final concentration 10^−11 mol/L, day 1, three days",41.9 ± 2.17 × 10^3
